This assay relates to Prostate cancer cells 22RV1. Put plainly: Experiment on inhibiting 22RV1 cell proliferation (CellTiter-Glo, 7 days). The class given is cell-based. Conditions: Homo sapiens, 168 h, 22RV1 cells, 7 days incubation, read-out: IC50 values for inhibition of 22RVI cells. The essentials:
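22RV1 cells at 2000/well in 1% charcoal-stripped-FBS phenol red-free medium, treated next day with compound for 7 days at 37 °C, 5% CO2. Viability by CellTiter-Glo luminescence; inhibition relative to DMSO vehicle, IC50 from dose-response fit.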
In general terms: In ATP-based viability assays light output follows the ATP content of the culture.

Setting [1] is: cells with nM printed beside the value.
Where [2] appears, read: cells without a unit of their own (μM).

Where two headings read alike, the source gives them in different places. Some results are limits rather than exact numbers.

Take `Cc1c(C#CC2CN(c3ccc4c(c3)C(=O)N(C3CCC(=O)NC3=O)C4=O)C2)cnn1C1(C(=O)Nc2ccc(C(F)(F)F)cc2Cl)CCC1` (stereo not shown) [Compound 163, N-(2-chloro-4-(trifluoromethyl)phenyl)-1-(4-((1-(2-(2,6-dioxopiperidin-3-yl)-1,3-dioxoisoindolin-5-yl)azetidin-3-yl)ethynyl)-5-methyl-1H-pyrazol-1-yl)cyclobutane-1-carboxamide]: under setting [1], the IC50 (in general, the midpoint of a concentration-inhibition curve) is below 50 nM.
The same measure, in the same setting: the result for `[2H]C([2H])([2H])C(C(=O)Nc1ccc(C#N)cc1C1CC1)(n1cc(C#CC2CN(c3ccc4c(c3)C(=O)N(C3CCC(=O)NC3=O)C4=O)C2)cn1)C([2H])([2H])[2H]` (stereo not shown) [Compound 186, N-(4-cyano-2-cyclopropylphenyl)-2-(4-((1-(2-(2,6-dioxopiperidin-3-yl)-1,3-dioxoisoindolin-S-yl)azetidin-3-yl)ethynyl)-1H-pyrazol-1-yl)-2,2-(dimethyl-d6) acetamide] reads below 100 nM.
Take `CC(C)(C(=O)Nc1ccc([N+](=O)[O-])c(C(F)(F)F)c1)n1cc(C#CC2CN(c3ccc4c(c3)C(=O)N(C3CCC(=O)NC3=O)C4=O)C2)cn1` (stereo not shown) [Compound 26, 2-(4-((1-(2-(2,6-dioxopiperidin-3-yl)-1,3-dioxoisoindolin-5-yl)azetidin-3-yl)ethynyl)-1H-pyrazol-1-yl)-2-methyl-N-(4-nitro-3-(trifluoromethyl)phenyl)propanamide]: under setting [2], the IC50 is below 1000 nM.
As to `CC(C)(C(=O)Nc1ccc([N+](=O)[O-])c(Cl)c1)n1cc(C#CC2CN(c3ccc4c(c3)C(=O)N(C3CCC(=O)NC3=O)C4=O)C2)cn1` (stereo not shown) [Compound 25, N-(3-chloro-4-nitrophenyl)-2-(4-((1-(2-(2,6-dioxopiperidin-3-yl)-1,3-dioxoisoindolin-5-yl)azetidin-3-yl)ethynyl)-1H-pyrazol-1-yl)-2-methylpropanamide], the half-inhibitory concentration (IC50) under setting [2] is below 1000 nM.
As to `CC(C)(C(=O)Nc1ccc(C(F)(F)F)cc1-n1cncn1)n1cc(C#CC2CN(c3ccc4c(c3)C(=O)N(C3CCC(=O)NC3=O)C4=O)C2)cn1` (stereo not shown) [Compound 117, N-(2-(1H-1,2,4-triazol-1-yl)-4-(trifluoromethyl)phenyl)-2-(4-((1-(2-(2,6-dioxopiperidin-3-yl)-1,3-dioxoisoindolin-5-yl)azetidin-3-yl)ethynyl)-1H-pyrazol-1-yl)-2-methylpropanamide], the IC50 under setting [2] was below 1000 nM.
Still for that read-out and setting: the result for `N#Cc1ccc(NC(=O)C2(n3cc(C#CC4CN(c5cc6c(cc5F)C(=O)N(C5CCC(=O)NC5=O)C6=O)C4)cn3)CCC2)c2ccccc12` (stereo not shown) [Compound 80] reads below 1000 nM.
Regarding `Cc1c(C#N)ccc(NC(=O)C(C)(C)n2cc(C#CC3CN(c4ccc5c(c4)C(=O)N(C4CCC(=O)NC4=O)C5=O)C3)cn2)c1C` (stereo not shown) [Compound 152, N-(4-cyano-2,3-dimethylphenyl)-2-(4-((1-(2-(2,6-dioxopiperidin-3-yl)-1,3-dioxoisoindolin-5-yl)azetidin-3-yl)ethynyl)-1H-pyrazol-1-yl)-2-methylpropanamide], the IC50 under setting [1] is below 50 nM.
Same read-out and setting: as for `CC(C)(C(=O)Nc1ccc(C(F)(F)F)cc1C=C(F)F)n1cc(C#CC2CN(c3ccc4c(c3)C(=O)N(C3CCC(=O)NC3=O)C4=O)C2)cn1` (stereo not shown) [Compound 190, N-(2-(2,2-difluorovinyl)-4-(trifluoromethyl)phenyl)-2-(4-((1-(2-(2,6-dioxopiperidin-3-yl)-1,3-dioxoisoindolin-5-yl)azetidin-3-yl)ethynyl)-1H-pyrazol-1-yl)-2-methylpropanamide], the figure is below 100 nM; as for `Cc1cc(C(F)(F)F)ccc1NC(=O)C(C)(C)n1cc(C#CC2CN(c3ccc4c(c3)C(=O)N(C3CCC(=O)NC3=O)C4=O)C2)cn1` (stereo not shown) [Compound 59], below 50 nM.
Same read-out and setting: as for `C=CCc1cc(C(F)(F)F)ccc1NC(=O)C(C)(C)n1cc(C#CC2CN(c3ccc4c(c3)C(=O)N(C3CCC(=O)NC3=O)C4=O)C2)cn1` (stereo not shown) [Compound 169, N-(2-allyl-4-(trifluoromethyl)phenyl)-2-(4-((1-(2-(2,6-dioxopiperidin-3-yl)-1,3-dioxoisoindolin-5-yl)azetidin-3-yl)ethynyl)-1H-pyrazol-1-yl)-2-methylpropanamide], the figure is below 50 nM.

Source of the values: US20250171417A1, “HETEROCYCLIC DERIVATIVE, AND COMPOSITION AND PHARMACEUTICAL USE THEREOF” (Xizang Haisco Pharmaceutical Co., Ltd., priority 2021, published 2025).
